The values below come from patent US20170101383A1, “DIAMINOTRIAZINE DERIVATIVES AS HERBICIDES” (BASF SE, priority 2014, published 2017).

SMILES strings stand for the structures.

In experiment [1] the test system is Amaranthus retroflexus. The experiment in a line: greenhouse pre-emergence treatment, AMARE. It is filed as in vivo. Particulars: scale 0 to 100. An excerpt:
(§1) The seeds of the test plants were sown separately for each species. For the pre-emergence treatment, the active ingredients, which had been suspended or emulsified in water, were applied directly after sowing by means of finely distributing nozzles. The containers were irrigated gently to promote germination and growth and subsequently covered with transparent plastic hoods until the plants had rooted. This cover caused uniform germination of the test plants, unless this had been impaired by the active ingredients. Depending on the species, the plants were kept at 10-25° C. or 20-35° C., respectively. The test period extended over 2 to 4 weeks. During this time, the plants were tended, and their response to the individual treatments was evaluated. Evaluation was carried out using a scale from 0 to 100. 100 means no emergence of the plants, or complete destruction of at least the aerial moieties, and 0 means no damage, or normal course of growth. A moderate herbicidal activity is given at values of at least 60, a good herbicidal activity is given at values of at least 70, and a very good herbicidal activity is given at values of at least 85. The plants used in the greenhouse experiments were of the following species: [table]

Experiment [2] has as its system Setaria viridis. The experiment in a line: greenhouse post-emergence treatment, SETVI. The settings on record: 0.500 kg/ha, scale 0 to 100. It is filed as in vivo. An excerpt: (§2) The seeds of the test plants were sown separately for each species. For the post-emergence treatment, the test plants were first grown to a height of 3 to 15 cm, depending on the plant habit, and only then treated with the active ingredients which had been suspended or emulsified in water. For this purpose, the test plants were either sown directly and grown in the same containers, or they were first grown separately as seedlings and transplanted into the test containers a few days prior to treatment. Depending on the species, the plants were kept at 10-25° C. or 20-35° C., respectively. The test period extended over 2 to 4 weeks. During this time, the plants were tended, and their response to the individual treatments was evaluated. Evaluation was carried out using a scale from 0 to 100. 100 means no emergence of the plants, or complete destruction of at least the aerial moieties, and 0 means no damage, or normal course of growth. A moderate herbicidal activity is given at values of at least 60, a good herbicidal activity is given at values of at least 70, and a very good herbicidal activity is given at values of at least 85. The plants used in the greenhouse experiments were of the following species: [table]

The test system of experiment [3] is Polygonum convolvulus. The experiment is described as follows: greenhouse post-emergence treatment, POLCO. It is filed as in vivo. The settings on record: 0.500 kg/ha, scale 0 to 100.
Excerpt: as §2

In experiment [4] the test system is Apera spica-venti. The experiment is described as follows: greenhouse pre-emergence treatment, APESV. The experiment is classed as in vivo. Particulars: 0.125 kg/ha, scale 0 to 100.
Excerpt: as §1

In experiment [5] the test system is Echinocloa crus-galli. The experiment in a line: greenhouse post-emergence treatment, ECHCG. It is filed as in vivo. Particulars: 0.500 kg/ha, scale 0 to 100.
Excerpt: as §2

Experiment [6] has as its system Alopecurus myosuroides. The experiment in a line: greenhouse pre-emergence treatment, ALOMY. It is filed as in vivo. Particulars: 0.125 kg/ha, scale 0 to 100.
Excerpt: as §1

The test system of experiment [7] is Viola arvensis. The experiment in a line: greenhouse post-emergence treatment, VIOAR. It is filed as in vivo. Particulars: 0.500 kg/ha, scale 0 to 100.
Excerpt: as §2

Experiment [8] has as its system Setaria faberi. The experiment in a line: greenhouse pre-emergence treatment, SETFA. The experiment is classed as in vivo. Particulars: scale 0 to 100.
Excerpt: as §1

The test system of experiment [9] is Echinocloa crus-galli. The experiment in a line: greenhouse pre-emergence treatment, ECHCG. It is filed as in vivo. Particulars: scale 0 to 100.
Excerpt: as §1

For experiment [10], the system named is Stellaria media. The experiment is described as follows: greenhouse post-emergence treatment, STEME. It is filed as in vivo. The settings on record: 0.500 kg/ha, scale 0 to 100.
Excerpt: as §2

Experiment [11] deals with Viola arvensis. The experiment in a line: greenhouse pre-emergence treatment, VIOAR. The experiment is classed as in vivo. Particulars: 0.500 kg/ha, scale 0 to 100.
Excerpt: as §1

In experiment [12] the test system is Stellaria media. The experiment is described as follows: greenhouse pre-emergence treatment, STEME. The experiment is classed as in vivo. The settings on record: 0.500 kg/ha, scale 0 to 100.
Excerpt: as §1

For experiment [13], the system named is Lamium purpureum. The experiment in a line: greenhouse pre-emergence treatment, LAMPU. It is filed as in vivo. The settings on record: 0.500 kg/ha, scale 0 to 100.
Excerpt: as §1

The test system of experiment [14] is Abutilon theophrasti. The experiment is described as follows: greenhouse post-emergence treatment, ABUTH. Particulars: 0.500 kg/ha, scale 0 to 100. It is filed as in vivo.
Excerpt: as §2

Experiment [15] relates to Abutilon theophrasti. The experiment in a line: greenhouse pre-emergence treatment, ABUTH. The experiment is classed as in vivo. The settings on record: 0.500 kg/ha, scale 0 to 100.
Excerpt: as §1

For experiment [16], the system named is Amaranthus retroflexus. The experiment is described as follows: greenhouse post-emergence treatment, AMARE. The settings on record: Amaranthus retroflexus, 0.500 kg/ha, scale 0 to 100, read-out: herbicidal activity against AMARE. It is filed as in vivo.
Excerpt: as §2

For experiment [17] the following is noted: known from Archiv der Pharmazie, 1984, Vol. 317, S. 754; cited from earlier work.

Regarding `COc1nc(N)nc(Nc2c(F)c(F)c(F)c(F)c2F)n1` [Example 2, 6-methoxy-N2-(2,3,4,5,6-pentafluorophenyl)-1,3,5-triazine-2,4-diamine], in [1] (0.125 kg/ha), the “herbicidal activity against AMARE” value was “good to very good”. For the same compound, the “herbicidal activity against SETVI” value in [2] is given as “very good (a very good herbicidal activity is given at values of at least 85)”. The “herbicidal activity against POLCO” value in experiment [3] is on record as “very good (a very good herbicidal activity is given at values of at least 85)”. Besides, the “herbicidal activity against APESV” value in [4] was “good to very good”. Besides, the “herbicidal activity against ECHCG” value in experiment [5] is listed as “very good (a very good herbicidal activity is given at values of at least 85)”. In experiment [6], the “herbicidal activity against ALOMY” value was “good to very good”.

For `Nc1nc(Nc2c(F)c(F)c(F)c(F)c2F)nc(OCC(F)(F)F)n1` [Example 3], the “herbicidal activity against AMARE” value in experiment [1] (1.000 kg/ha) is listed as “very good (a very good herbicidal activity is given at values of at least 85)”. Moreover, the “herbicidal activity against VIOAR” value in experiment [7] was “very good (a very good herbicidal activity is given at values of at least 85)”. Moreover, the “herbicidal activity against SETFA” value in [8] (1.000 kg/ha) is listed as “very good (a very good herbicidal activity is given at values of at least 85)”. Further, the “herbicidal activity against ECHCG” value in [9] (1.000 kg/ha) was “very good (a very good herbicidal activity is given at values of at least 85)”. Further, in experiment [2], the “herbicidal activity against SETVI” value is reported as “very good (a very good herbicidal activity is given at values of at least 85)”. The “herbicidal activity against STEME” value in experiment [10] is recorded as “very good (a very good herbicidal activity is given at values of at least 85)”.

Consider `COc1nc(N)nc(Nc2c(F)c(F)cc(F)c2F)n1` [Example 4], for which, in experiment [11], the “herbicidal activity against VIOAR” value is reported as “very good (a very good herbicidal activity is given at values of at least 85)”. Besides, the “herbicidal activity against STEME” value in experiment [12] was “very good (a very good herbicidal activity is given at values of at least 85)”. In addition, the “herbicidal activity against LAMPU” value in experiment [13] is “very good (a very good herbicidal activity is given at values of at least 85)”.

For `Nc1nc(Nc2c(F)c(F)cc(F)c2F)nc(N2CCC2)n1` [Example 34], the “herbicidal activity against ABUTH” value in experiment [14] and in experiment [15] was “very good (a very good herbicidal activity is given at values of at least 85)” in each case. In addition, the “herbicidal activity against AMARE” value in experiment [1] (0.500 kg/ha) is reported as “very good (a very good herbicidal activity is given at values of at least 85)”. In addition, the “herbicidal activity against SETFA” value in [8] (0.500 kg/ha) is recorded as “very good (a very good herbicidal activity is given at values of at least 85)”. The “herbicidal activity against ECHCG” value in experiment [9] (0.500 kg/ha) and in experiment [5] was “very good (a very good herbicidal activity is given at values of at least 85)” throughout. Besides, in experiment [16], the pest or weed control at 500 g/ha is not below 85%.

Take `CC(C)Nc1nc(Nc2ccccc2F)nc(NC(C)C)n1` [N6-(2-fluorophenyl)-N2,N4-diisopropyl-1,3,5-triazine-2,4,6-triamine]: the trichomonacidal activity entry in experiment [17] is recorded as “shows trichomonacidal activity”.
